In US9650390B2, “Water-soluble taxane derivatives and uses thereof” (priority 2014, dated 2017):

Assays:
[1] = In vitro dissociation in blood plasma of rat; format: in vitro ADME, SD rats; details: fresh SD rat plasma, 37° C.; for Sampling time/Dissociation percent (%) 2 min: 2 min incubation; for Sampling time/Dissociation percent (%) 5 min: 5 min incubation; for Sampling time/Dissociation percent (%) 10 min: 10 min incubation
Procedure: The obtained water soluble taxane derivatives of the following formulae were formulated as 0.2 mg/ml aqueous solutions. […] After 2 min, 5 min and 10 min of incubation, 0.2 ml of solutions were respectively taken from each of the samples, and added to acetonitrile (0.4 ml) cooled to −20° C. for precipitation of protein.

[2] = In vitro dissociation in blood plasma of rabbit; format: in vitro ADME, New Zealand white rabbits; details: fresh New Zealand white rabbit plasma, 37° C.
Procedure: The obtained water soluble taxane derivatives of the following formulae were formulated as 0.2 mg/ml aqueous solutions. […]

[3] = test system: human ovarian cancer SK-OV-3; details: 24 mg/kg, D0-4 IV; for Body weight change (%) D4: nude mice; for T/C (%) D22 / Tumor volume (mm^3) (D0) / Tumor volume (mm^3) (D22) / Tumor inhibitory percent (%) D22: SK-OV-3 xenograft in nude mice; for Tumor volume (mm^3) (D0): baseline at grouping (D0); for Tumor inhibitory percent (%) D22: P = 0.000 vs control
Description: Purpose: to evaluate and compare the inhibitory activity of the water soluble paclitaxel derivatives, paclitaxel and Abraxane® on subcutaneously xenografted tumor of human ovarian cancer SK-OV-3 in nude mice.
Human ovarian cancer SK-OV-3 cells were subcutaneously inoculated to nude mice. After the tumor volume reached 100-150 mm^3, the animals were randomly divided into groups (D0), and administered with the water soluble paclitaxel derivatives of the following formula, paclitaxel, and Abraxane®, respectively once per day for 5 days. The tumor volume was measured 2-3 times per week, the animals were weighed and the data were recorded until day 22 (D22) after grouping.
(§1) The tumor volume (V) was calculated according to the equation: V=½×a×b^2, wherein a and b represent the length and the width, respectively.
T/C (%)=(T−T0)/(C−C0)×100, wherein T and C represent the tumor volume at the end of the experiment, and T0 and C0 represent the tumor volume at the beginning of the experiment.

[4] = test system: human prostate cancer PC-3; experiment: Inhibitory activity of docetaxel derivatives on subcutaneously xenografted tumor PC-3 in nude mice; format: in vivo; details: 33.6 mg/kg, D0 IV; for T/C (%) D20 / Tumor inhibitory percent (%) D20 / Tumor volume (mm^3) (D0) / Tumor volume (mm^3) (D20): PC-3 xenograft in nude mice; for Tumor inhibitory percent (%) D20: P = 0.000 vs control; for Tumor volume (mm^3) (D0): baseline at grouping (D0); for Weight change (%) D6: nude mice
Description: Purpose: to evaluate and compare the inhibitory activity of the water soluble docetaxel derivatives and docetaxel on subcutaneously xenografted tumor of human prostate cancer PC-3 in nude mice
Human prostate cancer PC-3 cells were subcutaneously inoculated into nude mice. After the tumor volume reached 100-150 mm^3, the animals were randomly divided into several groups, and administered with the water soluble docetaxel derivatives of the following formula and docetaxel, respectively once on the same day (D0). The tumor volume was measured 2-3 times per week, the animals were weighed and the data were recorded until day 20 (D20) after grouping.
as §1
T/C (%)=(T−T0)/(C−C0)×100, wherein T and C represent the tumor volume at the end of the experiment; and T0 and C0 represent the tumor volume at the beginning of the experiment.

CC(=O)O[C@H]1C(=O)[C@@]2(C)[C@H]([C@H](OC(=O)c3ccccc3)[C@]3(O)C[C@H](OC(=O)[C@H](OC(=O)[C@H](F)CCN(C)C)[C@@H](NC(=O)c4ccccc4)c4ccccc4)C(C)=C1C3(C)C)[C@]1(OC(C)=O)CO[C@@H]1C[C@@H]2O.CS(=O)(=O)O [Compound C1, 2′-O-[4-N,N-dimethylamino-2(R)-fluorobutyryl]paclitaxel methanesulfonate]
Sampling time/Dissociation percent (%) 2 min [1]: 64.3% | Sampling time/Dissociation percent (%) 5 min [1]: 97.0% | Sampling time/Dissociation percent (%) 10 min [1]: 100% | Sampling time/Dissociation percent (%) 2 min [2]: 77.2% | Sampling time/Dissociation percent (%) 5 min [2]: 98.4% | Sampling time/Dissociation percent (%) 10 min [2]: 100% | Body weight change (%) D4 [3]: −5.9% | T/C (%) D22 [3]: −63% | Tumor volume (mm^3) (D0) [3]: 133.6 ± 9.5 mm^3

CC(=O)O[C@H]1C(=O)[C@@]2(C)[C@H]([C@H](OC(=O)c3ccccc3)[C@]3(O)C[C@H](OC(=O)[C@H](OC(=O)[C@@H](F)CCN(C)C)[C@@H](NC(=O)c4ccccc4)c4ccccc4)C(C)=C1C3(C)C)[C@]1(OC(C)=O)CO[C@@H]1C[C@@H]2O.CS(=O)(=O)O [Compound C2, 2′-O-[4-N,N-dimethylamino-2(S)-fluorobutyryl]paclitaxel methanesulfonate]
Sampling time/Dissociation percent (%) 2 min [1]: 62.8% | Sampling time/Dissociation percent (%) 5 min [1]: 96.5% | Sampling time/Dissociation percent (%) 10 min [1]: 100% | Sampling time/Dissociation percent (%) 2 min [2]: 69.7% | Sampling time/Dissociation percent (%) 5 min [2]: 98.1% | Sampling time/Dissociation percent (%) 10 min [2]: 100% | Body weight change (%) D4 [3]: −5.8% | T/C (%) D22 [3]: −61% | Tumor volume (mm^3) (D22) [3]: 51.2 ± 11.2 mm^3

CC(=O)O[C@H]1C(=O)[C@@]2(C)[C@H]([C@H](OC(=O)c3ccccc3)[C@]3(O)C[C@H](OC(=O)[C@H](OC(=O)C(F)CCN(C)C)[C@@H](NC(=O)c4ccccc4)c4ccccc4)C(C)=C1C3(C)C)[C@]1(OC(C)=O)CO[C@@H]1C[C@@H]2O.CS(=O)(=O)O (stereo partly drawn) [Compound C3, 2′-O-[4-N,N-dimethylamino-2(R,S)-fluorobutyryl]paclitaxel methanesulfonate]
Sampling time/Dissociation percent (%) 2 min [1]: 63.7% | Sampling time/Dissociation percent (%) 5 min [1]: 96.8% | Sampling time/Dissociation percent (%) 10 min [1]: 100% | Sampling time/Dissociation percent (%) 2 min [2]: 76.5% | Sampling time/Dissociation percent (%) 5 min [2]: 94.6% | Sampling time/Dissociation percent (%) 10 min [2]: 100% | Body weight change (%) D4 [3]: −6.0% | T/C (%) D22 [3]: −64% | Tumor volume (mm^3) (D22) [3]: 50.6 ± 9.7 mm^3

CC(=O)O[C@@]12CO[C@@H]1C[C@H](O)[C@@]1(C)C(=O)[C@H](O)C3=C(C)[C@@H](OC(=O)[C@H](OC(=O)[C@H](F)CCN(C)C)[C@@H](NC(=O)OC(C)(C)C)c4ccccc4)C[C@@](O)([C@@H](OC(=O)c4ccccc4)[C@H]21)C3(C)C.CS(=O)(=O)O [Compound C4, 2′-O-[4-N,N-dimethylamino-2(R)-fluorobutyryl]docetaxel methanesulfonate]
Sampling time/Dissociation percent (%) 2 min [1]: 59.2% | Sampling time/Dissociation percent (%) 5 min [1]: 93.4% | Sampling time/Dissociation percent (%) 10 min [1]: 100% | Sampling time/Dissociation percent (%) 2 min [2]: 81.6% | Sampling time/Dissociation percent (%) 5 min [2]: 94.8% | Sampling time/Dissociation percent (%) 10 min [2]: 100% | T/C (%) D20 [4]: −77% | Tumor inhibitory percent (%) D20 [4]: 177% | Tumor volume (mm^3) (D0) [4]: 113.7 ± 2.9 mm^3

CC(=O)O[C@@]12CO[C@@H]1C[C@H](O)[C@@]1(C)C(=O)[C@H](O)C3=C(C)[C@@H](OC(=O)[C@H](OC(=O)[C@@H](F)CCN(C)C)[C@@H](NC(=O)OC(C)(C)C)c4ccccc4)C[C@@](O)([C@@H](OC(=O)c4ccccc4)[C@H]21)C3(C)C.CS(=O)(=O)O [Compound C5, 2′-O-[4-N,N-dimethylamino-2(S)-fluorobutyryl]docetaxel methanesulfonate]
Sampling time/Dissociation percent (%) 2 min [1]: 58.9% | Sampling time/Dissociation percent (%) 5 min [1]: 93.3% | Sampling time/Dissociation percent (%) 10 min [1]: 100% | Sampling time/Dissociation percent (%) 2 min [2]: 81.2% | Sampling time/Dissociation percent (%) 5 min [2]: 93.1% | Sampling time/Dissociation percent (%) 10 min [2]: 100% | T/C (%) D20 [4]: −76% | Tumor volume (mm^3) (D20) [4]: 26.8 ± 12.6 mm^3 | Tumor inhibitory percent (%) D20 [4]: 175% | Tumor volume (mm^3) (D0) [4]: 113.4 ± 3.1 mm^3

CC(=O)O[C@@]12CO[C@@H]1C[C@H](O)[C@@]1(C)C(=O)[C@H](O)C3=C(C)[C@@H](OC(=O)[C@H](OC(=O)C(F)CCN(C)C)[C@@H](NC(=O)OC(C)(C)C)c4ccccc4)C[C@@](O)([C@@H](OC(=O)c4ccccc4)[C@H]21)C3(C)C.CS(=O)(=O)O (stereo partly drawn) [Compound C6, 2′-O-[4-N,N-dimethylamino-2(R,S)-fluorobutyryl]docetaxel methanesulfonate]
Sampling time/Dissociation percent (%) 2 min [1]: 59.1% | Sampling time/Dissociation percent (%) 5 min [1]: 93.3% | Sampling time/Dissociation percent (%) 10 min [1]: 100% | Sampling time/Dissociation percent (%) 2 min [2]: 76.8% | Sampling time/Dissociation percent (%) 5 min [2]: 97.8% | Sampling time/Dissociation percent (%) 10 min [2]: 100% | Weight change (%) D6 [4]: −12.6% | T/C (%) D20 [4]: −76% | Tumor volume (mm^3) (D20) [4]: 27.0 ± 12.3 mm^3 | Tumor inhibitory percent (%) D20 [4]: 175% | Tumor volume (mm^3) (D0) [4]: 113.8 ± 3.0 mm^3

CCN(C)CC[C@@H](F)C(=O)O[C@@H](C(=O)O[C@H]1C[C@@]2(O)[C@@H](OC(=O)c3ccccc3)[C@@H]3[C@]4(OC(C)=O)CO[C@@H]4C[C@H](O)[C@@]3(C)C(=O)[C@H](OC(C)=O)C(=C1C)C2(C)C)[C@@H](NC(=O)c1ccccc1)c1ccccc1.CS(=O)(=O)O [Compound C18, 2′-O-[4-N-methyl-N-ethylamino-2(R)-fluorobutyryl]paclitaxel methanesulfonate]
Body weight change (%) D4 [3]: −7.0% | T/C (%) D22 [3]: −53% | Tumor volume (mm^3) (D22) [3]: 55.7 ± 10.6 mm^3 | Tumor volume (mm^3) (D0) [3]: 133.6 ± 9.4 mm^3

CCN(CC)CC[C@H](F)C(=O)O[C@@H](C(=O)O[C@H]1C[C@@]2(O)[C@@H](OC(=O)c3ccccc3)[C@@H]3[C@]4(OC(C)=O)CO[C@@H]4C[C@H](O)[C@@]3(C)C(=O)[C@H](OC(C)=O)C(=C1C)C2(C)C)[C@@H](NC(=O)c1ccccc1)c1ccccc1.O=C(O)/C=C/C(=O)O [Compound C19, 2′-O-[4-N,N-diethylamino-2(S)-fluorobutyryl]paclitaxel fumarate]
Body weight change (%) D4 [3]: −8.1% | T/C (%) D22 [3]: −44% | Tumor volume (mm^3) (D22) [3]: 55.7 ± 10.1 mm^3 | Tumor volume (mm^3) (D0) [3]: 133.6 ± 9.4 mm^3

CC(=O)O[C@H]1C(=O)[C@@]2(C)[C@H]([C@H](OC(=O)c3ccccc3)[C@]3(O)C[C@H](OC(=O)[C@H](OC(=O)C(F)CCN(C)C(C)C)[C@@H](NC(=O)c4ccccc4)c4ccccc4)C(C)=C1C3(C)C)[C@]1(OC(C)=O)CO[C@@H]1C[C@@H]2O.Cl (stereo partly drawn) [Compound C20, 2′-O-[4-N-methyl-N-isopropylamino-2(R,S)-fluorobutyryl]paclitaxel hydrochloride]
Body weight change (%) D4 [3]: −10.3% | T/C (%) D22 [3]: −38% | Tumor volume (mm^3) (D22) [3]: 60.4 ± 12.3 mm^3 | Tumor inhibitory percent (%) D22 [3]: 98% | Tumor volume (mm^3) (D0) [3]: 127.9 ± 11.4 mm^3

CC(=O)OC1C(=O)C2(C)C(O)CC3OCC3(OC(C)=O)C2C(OC(=O)c2ccccc2)C2(O)CC(OC(=O)C(OC(=O)C(CCN(C)C)C(F)(F)F)C(NC(=O)c3ccccc3)c3ccccc3)C(C)=C1C2(C)C.Cc1ccc(S(=O)(=O)O)cc1 [Compound C21, 2′-O-[4-N,N-dimethylamino-2(R,S)-2-trifluoromethylbutyryl]paclitaxel p-toluene sulfonate]
Body weight change (%) D4 [3]: −8.9% | T/C (%) D22 [3]: −48% | Tumor volume (mm^3) (D22) [3]: 57.3 ± 11.4 mm^3 | Tumor volume (mm^3) (D0) [3]: 134.9 ± 11.4 mm^3

CC(=O)O[C@H]1C(=O)[C@@]2(C)[C@H]([C@H](OC(=O)c3ccccc3)[C@]3(O)C[C@H](OC(=O)[C@H](OC(=O)C(CCN(C)C)C(F)F)[C@@H](NC(=O)c4ccccc4)c4ccccc4)C(C)=C1C3(C)C)[C@]1(OC(C)=O)CO[C@@H]1C[C@@H]2O.Cl (stereo partly drawn) [Compound C22, 2′-O-[4-N,N-dimethylamino-2(R,S)-2-difluoromethylbutyryl]paclitaxel hydrochloride]
Body weight change (%) D4 [3]: −8.4% | T/C (%) D22 [3]: −35% | Tumor volume (mm^3) (D22) [3]: 61.2 ± 13.5 mm^3 | Tumor inhibitory percent (%) D22 [3]: 135% | Tumor volume (mm^3) (D0) [3]: 133.4 ± 12.6 mm^3

CC(=O)OC1C(=O)C2(C)C(O)CC3OCC3(OC(C)=O)C2C(OC(=O)c2ccccc2)C2(O)CC(OC(=O)C(OC(=O)C(F)CC(C)N(C)C)C(NC(=O)c3ccccc3)c3ccccc3)C(C)=C1C2(C)C.O=C(O)C=CC(=O)O [Compound C23, 2′-O-[4-N,N-dimethylamino-2(R)-fluorovaleryl]paclitaxel maleate]
Body weight change (%) D4 [3]: −9.4% | T/C (%) D22 [3]: −23% | Tumor volume (mm^3) (D22) [3]: 70.8 ± 16.8 mm^3 | Tumor inhibitory percent (%) D22 [3]: 60% | Tumor volume (mm^3) (D0) [3]: 135.8 ± 14.7 mm^3

CC(=O)O[C@@]12CO[C@@H]1C[C@H](O)[C@@]1(C)C(=O)[C@H](O)C3=C(C)[C@@H](OC(=O)[C@H](OC(=O)C(CCN(C)C)C(F)F)[C@@H](NC(=O)OC(C)(C)C)c4ccccc4)C[C@@](O)([C@@H](OC(=O)c4ccccc4)[C@H]21)C3(C)C.Cl (stereo partly drawn) [Compound C29, 2′-O-[4-N,N-dimethylamino-2(R,S)-2-difluoromethylbutyryl]docetaxel hydrochloride]
Weight change (%) D6 [4]: −15.1% | T/C (%) D20 [4]: −37% | Tumor volume (mm^3) (D20) [4]: 36.8 ± 13.4 mm^3 | Tumor inhibitory percent (%) D20 [4]: 85% | Tumor volume (mm^3) (D0) [4]: 116.7 ± 3.1 mm^3
